# Experimental data as given in patent US9572816B2, “Method of treatment of disease” (TECHNION RESEARCH AND DEVELOPMENT FOUNDATION LTD., priority 2012, dated 2017).
# Legend:
# [1] = system: development of cataract; conditions: clinical studies, reported in the literature; cited from earlier work
# [2] = system: rat model of STZ-induced diabetes; test: Creatinine clearance rate (CrCl), kidney damage in rat model of STZ-induced diabetes; assay type: in vivo; conditions: after 7 weeks of treatment
# Description: (§1) Eight to ten-week old male Sprague Dawley rats were used in the model. Rat handling was performed according to guidelines of the National Institute of Health (NIH) and the Association for Assessment and Accreditation of Laboratory Animal Care (AAALAC). Diabetes was induced by intraperitoneal injection of 50 mg/kilogram (mg/kg) STZ (in 0.1 molar citrate buffer), which is a dose generally sufficient to destroy all insulin-producing beta cells and induce a diabetic disease-like state. Two weeks later, glucose levels were measured and rats displaying a level lower than 200 mg per deciliter (dL) were excluded from the study. The remaining rats were randomly divided into 3 groups (according to body weight and serum glucose levels): a control group, a corrole group and an LPA group. Each group received a 7-week course of treatment. […]
# A rat model was performed as in example 1, but rather than testing for eye damage, blood testing was used to test for creatinine levels. […] Creatinine clearance rate (CrCl), an established measure for evaluating renal function, was calculated for rats in all groups of the trial by dividing the amount of creatinine in the urine (mg/minute) by its concentration in the serum (mg/ml).
# CrCl was measured: a) before induction of diabetes; b) 2 weeks later when the treatment commenced; and c) following 7 weeks of treatment (9 weeks from STZ injection).
# [3] = system: rat model of STZ-induced diabetes; test: Cataract by lens opacity (slit-lamp biomicroscope) in rat model of STZ-induced diabetes; assay type: in vivo, Sprague Dawley rats; conditions: 7 weeks
# Description: as §1, with “treatment. The control group (13 rats) received water with no active ingredient. The corrole group (14 rats) received 20 mg/kg/day of the corrole designated 1-Fe. 1-Fe was synthesized using the procedure described in Mahammed et al. (Mahammed, Goldberg, & Gross, 2001).” for “treatment.”
# Cataract was evaluated a day before termination of the trial in live rats by measurement of opacities of the rat's lenses of each eye with a slit-lamp biomicroscope following the application of tropicamide eye drops. […]
# A rat having a score in at least one eye of 1 or higher was considered to have developed a cataract. The percentage of rats in each group having a cataract (cataract incidence) as determined by opacity measurements for each group is shown in FIG. 1A. […]
# The degree of cataract for both eyes as determined by averaging each group's cataract scoring of both eyes of each rat as determined by opacity measurement is shown in FIG. 1B.
# As cataract may develop at a different rate in each of the animals' eyes, the degree of cataract for the rats' worse eye was evaluated. The degree of cataract for the rats' worse eye was determined by averaging each group's cataract scoring of each animal's worse eye as determined by opacity measurement, and is shown in FIG. 1C. […]
# [4] = Body weight in rat model of STZ-induced diabetes; assay type: in vivo, Sprague Dawley rats; conditions: STZ-diabetic rats, 7-week treatment
# Description: as §1, with “treatment. The control group (13 rats) received water with no active ingredient. The corrole group (14 rats) received 20 mg/kg/day of the corrole designated 1-Fe. 1-Fe was synthesized using the procedure described in Mahammed et al. (Mahammed, Goldberg, & Gross, 2001). The LPA group (13 rats) received 50 mg/kg/day LPA. LPA was formulated for administration by dissolving in 1 millimolar sodium hydroxide (NaOH) which was then brought to a pH of 7.5.” for “treatment.”
# [5] = system: rat model of STZ-induced diabetes; test: Cataractous damage by histological examination (H&E) of lenses in rat model of STZ-induced diabetes; assay type: in vivo, Sprague Dawley rats; conditions: 7 weeks
# Description: as §1
# The development of cataractous damage was further evaluated by histological examination. […]
# A rat having a score in at least one eye of 1 or higher was considered to have suffered a cataractous damage. The percentage of rats in each group having a cataractous damage (cataract damage incidence) as determined by histological examination of lenses for each group is shown in FIG. 1D.
# The degree of cataractous damage for both eyes as determined by averaging each group's cataract scoring of both eyes of each rat as determined by histological examination is shown in FIG. 1E. […]
# [6] = system: DN in a rat model; conditions: administered in levels sufficient to be present in the kidney; cited from earlier work
molecule,measurement,setting,value
vitamin E,Effect on the development of cataract,[1],no significant effect
O=C1O[C@H]([C@@H](O)CO)C(O)=C1O [vitamin C],Effect on the development of cataract,[1],no significant effect
"O=C(O)CCCCC1CCSS1 (stereo not drawn) [LPA, alpha lipoic acid]",CrCl,"[2]; STZ-diabetic rats, 1-Fe 20 mg/kg/day, LPA 50 mg/kg/day",1.36 mL/min
same,Increase in creatinine clearance relative to the control group,"[2]; 1-Fe p=0.027, LPA p=0.078",89%
same,"Reduction in degree of cataract, both eyes (opacity score 0-4), relative to control group","[3]; 1-Fe 20 mg/kg/day (p=0.014), LPA 50 mg/kg/day (p=0.1)",28%
same,Degree of cataract in worse eye relative to control group (in words),[3]; LPA 50 mg/kg/day,not significantly reduced
same,Effect on cataract incidence (opacity measurement),"[3]; relative to control group, LPA 50 mg/kg/day",did not have a significant effect
same,Body weight change during the treatment phase,[4],significant weight loss
same,"Reduction in degree of cataractous damage, both eyes (histology score 0-4), relative to control group","[5]; 1-Fe 20 mg/kg/day, LPA 50 mg/kg/day",32%
same,"Cataract damage incidence by histological examination, relative to control group",[5]; corrole p=0.073,minimal
CC1=C(/C=C/C(C)=C/C=C/C(C)=C/C=C/C=C(C)/C=C/C=C(C)/C=C/C2=C(C)CCCC2(C)C)C(C)(C)CCC1 [beta-carotene],Effect on the development of cataract,[1],no significant effect
COc1cc(/C=C/C(=O)CC(=O)/C=C/c2ccc(O)c(OC)c2)ccc1O [curcumin],Treating DN in a rat model,[6],not successful
